Data taken from article PMC12035797, “Peptidomimetics Activating the Proteasome: A New Perspective for Parkinson’s Treatment” (Journal of Medicinal Chemistry, 2025).
“Also recorded” adds a separate entry of the source. *1 amine or outer side, *2 acyl side, *3 side chain or, on linkers, in order; H or OH if unused. Where a SMILES comes first, the peptide text is derived from it. [ ]: non-standard residue; d: D form. X2 = N=C(N)NCCC[C@@H](C(=O)[*:2])N(c1ccc([N+](=O)[O-])c2nonc12)[*:1]; Nlys = NCCCCNCC(=O)O

Legend:
[1] = system: HEK293T cells; test: Fluorescence microscopy of cell penetration of NBD-labeled activators; assay type: cell-based, human; settings: 10 μM, 3 h
Procedure: In order to verify the permeability of the constructs across cell membranes, we synthesized their analogues with an NBD fluorophore attached at the N-terminus. The excitation wavelength for this fluorophore is 467 nm, and the emission wavelength is 539 nm.
HEK293T cells were incubated in DMEM supplemented with 10% FBS and penicillin/streptomycin (100 units/mL/100 μg/mL), at 37 °C with 5% CO2. Cells were seeded on 24-well plates at a density of 3 × 10^4 cells per well and incubated in 0.5 mL of the complete medium for 48 h. Then, the fresh medium containing the modulators labeled with NBD fluorophore was added to each well at a concentration of 10 μM. Half an hour before the end of the incubation, 20 μL of Hoechst 33342 dye was added to each well, and then the plate was placed back in the incubator. After the 3 h incubation, cells were washed thoroughly with PBS, and a phenol red-free culture medium (FluoroBriteTM DMEM, Gibco/Thermo Fisher Scientific, Waltham, MA, USA) was added. Subsequently, the cells were examined using a Zeiss AXIO Observer D1 microscope (Carl Zeiss AG, Oberkochen, Germany) using an Alexa Fluor 488 filter.

[2] = system: endogenous α-synuclein in primary cortical cultures; test: Endogenous α-synuclein level in primary cortical cultures (Simple Western Jess); assay type: cell-based, mouse; settings: 2.5 μM, 7 days; statistical significance only for 1g
Procedure: The effectiveness of the compounds has also been examined by using proteins as substrates. By means of SDS-PAGE electrophoresis, we checked the extent to which model proteins were digested by the 20S proteasome alone and after its stimulation by 10 μM modulators. […] After incubation with the enzyme in the presence of each modulator, less than 40% of synuclein remained. […] All animal experiments were performed following the protocols evaluated and approved by the Laboratory Animal Centre of the University of Helsinki (Ethics Approval License KEK24-013) and in accordance with the European Community Guidelines (Directive 2010/63/EU). […] The viability and number of neuronal cells were calculated automatically in an Automated Cell Counter (Bio-Rad), plated at a density of 1,000,000 cells per well on 6-well plates and cultured in Neurobasal A Medium (Thermo Fisher Scientific (Gibco), #12349015, Waltham, MA, USA) supplemented with GlutaMAX (Thermo Fisher Scientific (Gibco) #A1286001, Waltham, MA, USA), B-27 Supplement (Thermo Fisher Scientific (Gibco), #17504001, Waltham, MA, USA), and 200 ng/mL Primocin (Invitrogen, ant-pm-1, San Diego, CA, USA). […] Protein concentrations in the cell lysates were determined using a bicinchoninic acid (BCA) assay (Sigma-Aldrich, 3B9643-1L-KC, MO, USA) according to the manufacturer’s instructions. […]

[3] = PAMPA, blood–brain barrier mimic; assay type: in vitro ADME; settings: 500 μM, 37 °C, 22 h
Description: In neurodegenerative diseases, proteins prone to aggregation accumulate in the neuronal cells. Therefore, a necessary feature of potential drugs is not only permeability across the cell membrane but also the ability to cross the blood-brain barrier (BBB). To preliminarily investigate this feature, we performed parallel artificial membrane permeation assays (PAMPA) including as positive controls propranolol and Tat47-57, known for their ability to penetrate the blood-brain barrier. Dopamine hydrobromide was included as a negative control. For comparison, we also tested compound 1a, which is devoid of a CPP sequence. […] The PAMPA was performed as previously described.[21] Briefly, a 2% solution of porcine brain lipid membrane (PBL; Avanti Polar Lipids Inc., Alabaster, AL, USA) in anhydrous dodecane was used as a mimic of the blood-brain barrier. Propranolol hydrochloride (Merck, Darmstadt, Germany) and Tat47-57 (synthesized in-house) served as positive controls, while dopamine hydrobromide (Merck, Darmstadt, Germany) was used as a negative control. Stock solutions of the tested compounds and controls were prepared at a concentration of 10 mM in deionized water and then diluted to 500 μM using 0.1 M PBS containing 5% DMSO. The donor-acceptor plate assembly was incubated at 37 °C while being shaken at 250 rpm for 22 h. Absorbance at 290 nm was measured for propranolol using an Infinite […] plate reader (Infinite […] plate reader, Tecan). For the other samples, fluorescence measurements were performed after the compounds were reacted with 0.02% fluorescamine. The rate of passive diffusion was calculated as the linear velocity of permeation (Pe). The data represent an average of three independent biological replicates.

[4] = system: hippocampal neurons containing Lewy body-like pS129-αsyn aggregates; test: pS129-α-synuclein aggregates in PFF-treated hippocampal neurons; assay type: cell-based, mouse; settings: 7 days after PFFs, 0.5 and 2.5 μM
Description: Encouraged by the results received, we tested the ability of the modulator-CPP constructs to increase α-synuclein degradation in a cell model using primary mouse neuronal cells. The presence of Lewy-like neurites and Lewy-like bodies containing aggregated α-synuclein with phosphorylated serine 129 (pS129-αsyn) is a characteristic feature of the brains of people with Parkinson’s disease. To mimic these aggregations, we introduced a solution of preformed fibrils (PFFs) to the media of neuronal cells, which led to the induction of α-synuclein phosphorylation and its aggregation in neurons isolated from mouse embryos. PFFs are purified, prion-like fibrils of α-synuclein that are produced by expressing a recombinant monomeric protein in bacteria. Seven days after PFFs are introduced to the cells, large aggregates are visible in the cell soma, often next to the cell nucleus. We added the PFF solution to the hippocampal cells, and after an hour of incubation, we introduced solutions of the activator. After 7 days, we immunostained neuronal cells using a monoclonal antibody against the NeuN protein, which is commonly used in neuronal differentiation studies to assess their functional status. Additionally, we stained the nuclei of all incubated cells with DAPI. […] It is noteworthy that the number of cells in samples with activators was slightly higher (Figure 5), which may indicate neuroprotective properties. […] The main tool for monitoring this process was an antibody against pS129-αsyn. […] The fluorescent microscopy images (Figure 5) show the difference between the amounts of aggregated protein in the control sample and in the samples containing activators at different concentrations.
Cells were isolated from pregnant mouse embryos at E16.0 and plated on precoated with poly-L-lysine wells of 96-well plates (PerkinElmer/Revvity Inc., Waltham, MA, USA) at 25,000 cells/well. The final medium volume was 150 μL/well. Cells were incubated at 37 °C, 5% CO2. […]

SMILES | penetration into cells, NBD fluorescence [1] | effect on endogenous α-synuclein in primary cortical cultures [2] | permeability across artificial BBB membrane, PAMPA [3] | effect on hippocampal cells containing α-synuclein aggregates [4]
C[C@@H](O)[C@H](NC(=O)[C@H](Cc1ccccc1)NC(=O)[C@H](Cc1ccc(O)cc1)NC(=O)CN(CCCCN)C(=O)[C@H](CCCNC(=N)N)NC(=O)[C@H](CCCNC(=N)N)NC(=O)[C@H](CCCNC(=N)N)NC(=O)[C@H](CCC(N)=O)NC(=O)[C@H](CCCNC(=N)N)NC(=O)[C@H](CCCNC(=N)N)NC(=O)[C@H](CCCCN)NC(=O)[C@H](CCCCN)NC(=O)[C@H](CCCNC(=N)N)Nc1ccc([N+](=O)[O-])c2nonc12)C(=O)NCC(=O)N[C@@H](CO)C(=O)N[C@@H](CCCCN)C(=O)N[C@@H](CC(=O)O)C(=O)N[C@@H](Cc1c[nH]c2ccccc12)C(=O)N[C@@H](CCCNC(=N)N)C(=O)N[C@@H](CO)C(=O)N[C@@H](Cc1ccc(O)cc1)C(=O)N[C@@H](Cc1ccc(O)cc1)C(=O)N[C@@H](CO)C(=O)O [1f_NBD] (H-[X2]KKRRQRRR[Nlys]YFTGSKDWRSYYS-OH; C-terminus assumed) | fluorescence from the attached NBD tag is visible inside HEK293T cells | – | – | –
C[C@@H](O)[C@H](NC(=O)[C@H](Cc1ccccc1)NC(=O)[C@H](Cc1ccc(O)cc1)NC(=O)CN(CCCCN)C(=O)[C@H](CCCNC(=N)N)NC(=O)[C@H](CCCNC(=N)N)NC(=O)[C@H](CCCNC(=N)N)NC(=O)[C@H](CCCNC(=N)N)NC(=O)[C@H](CCCNC(=N)N)NC(=O)[C@H](CCCNC(=N)N)Nc1ccc([N+](=O)[O-])c2nonc12)C(=O)NCC(=O)N[C@@H](CO)C(=O)N[C@@H](CCCCN)C(=O)N[C@@H](CC(=O)O)C(=O)N[C@@H](Cc1c[nH]c2ccccc12)C(=O)N[C@@H](CCCNC(=N)N)C(=O)N[C@@H](CO)C(=O)N[C@@H](Cc1ccc(O)cc1)C(=O)N[C@@H](Cc1ccc(O)cc1)C(=O)N[C@@H](CO)C(=O)O [1g_NBD] (H-[X2]RRRRR[Nlys]YFTGSKDWRSYYS-OH; C-terminus assumed) | fluorescence from the attached NBD tag is visible inside HEK293T cells | – | – | –
C[C@@H](O)[C@H](NC(=O)[C@H](Cc1ccccc1)NC(=O)[C@H](Cc1ccc(O)cc1)NC(=O)CN(CCCCN)C(=O)[C@H](CCCNC(=N)N)NC(=O)[C@H](CCCNC(=N)N)NC(=O)[C@H](CCCNC(=N)N)NC(=O)[C@H](CCNC(=N)N)NC(=O)[C@H](CCCNC(=N)N)NC(=O)[C@@H](N)CCCNC(=N)N)C(=O)NCC(=O)N[C@@H](CO)C(=O)N[C@@H](CCCCN)C(=O)N[C@@H](CC(=O)O)C(=O)N[C@@H](Cc1c[nH]c2ccccc12)C(=O)N[C@@H](CCCNC(=N)N)C(=O)N[C@@H](CO)C(=O)N[C@@H](Cc1ccc(O)cc1)C(=O)N[C@@H](Cc1ccc(O)cc1)C(=O)N[C@@H](CO)C(=O)O [1g] | – | able to reduce the amount of endogenous α-synuclein | had the ability to penetrate the artificial membrane mimicking the BBB | effectively reduced the number of hippocampal cells containing α-synuclein; also recorded: visible dependence of the degradation ability on concentration
